Tests used:
Test in all cases: relative viability (nuclei count vs DMSO), 5 days (fraction); higher = more cells survive
NCI-H1792 = system: NCI-H1792
Summary of the method: (§1)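 Lung cancer cell lines were pin-tool dosed in 1536-well plates on the day after seeding, with either a lone drug or a fixed anchor-drug dose plus five library-drug doses (not always all listed) in √10 steps. Nuclei were counted on 4× images after 5 days. Relative viability is the ratio of treated-well to vehicle-well nuclei counts, with each value a median of duplicate plates.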

NCI-H1793 = system: NCI-H1793
Summary of the method: as §1

NCI-H1915 = system: NCI-H1915
Summary of the method: as §1

NCI-H1944 = system: NCI-H1944
Summary of the method: as §1

NCI-H2126 = system: NCI-H2126
Summary of the method: as §1

NCI-H23 = system: NCI-H23
Summary of the method: as §1

NCI-H322M = system: NCI-H322M
Summary of the method: as §1

NCI-H441 = system: NCI-H441
Summary of the method: as §1

NCI-H460 = system: NCI-H460
Summary of the method: as §1

NCI-H661 = system: NCI-H661
Summary of the method: as §1

PC-3 [JPC-3] = system: PC-3 [JPC-3]
Summary of the method: as §1

SK-LU-1 = system: SK-LU-1
Summary of the method: as §1

O=C(O)CCCCC(CCSCc1ccccc1)SCc1ccccc1 (configuration not stated) [CPI-613] + CC(=O)c1c(C)c2cnc(Nc3ccc(N4CCNCC4)cn3)nc2n(C2CCCC2)c1=O [Palbociclib] (partner 0.5 µM)
relative viability (NCI-H1792; first compound 50 µM): 0.654 | relative viability (NCI-H1792; first compound 158.11 µM): 0.632 | relative viability (NCI-H1792; first compound 500 µM): 0.666 | relative viability (NCI-H1793; first compound 5 µM): 0.269 | relative viability (NCI-H1793; first compound 15.81 µM): 0.33 | relative viability (NCI-H1793; first compound 50 µM): 0.258 | relative viability (NCI-H1793; first compound 158.11 µM): 0.112 | relative viability (NCI-H1793; first compound 500 µM): 0.0566 | relative viability (NCI-H1915; first compound 5 µM): 0.5 | relative viability (NCI-H1915; first compound 15.81 µM): 0.494 | relative viability (NCI-H1915; first compound 50 µM): 0.506 | relative viability (NCI-H1915; first compound 158.11 µM): 0.23 | relative viability (NCI-H1915; first compound 500 µM): 0.0812 | relative viability (NCI-H1944; first compound 5 µM): 0.331 | relative viability (NCI-H1944; first compound 15.81 µM): 0.312 | relative viability (NCI-H1944; first compound 50 µM): 0.335 | relative viability (NCI-H1944; first compound 158.11 µM): 0.259 | relative viability (NCI-H1944; first compound 500 µM): 0.26 | relative viability (NCI-H2126; first compound 5 µM): 0.334 | relative viability (NCI-H2126; first compound 15.81 µM): 0.363 | relative viability (NCI-H2126; first compound 50 µM): 0.338 | relative viability (NCI-H2126; first compound 158.11 µM): 0.213 | relative viability (NCI-H2126; first compound 500 µM): 0.162 | relative viability (NCI-H23; first compound 5 µM): 0.465 | relative viability (NCI-H23; first compound 15.81 µM): 0.465 | relative viability (NCI-H23; first compound 50 µM): 0.519 | relative viability (NCI-H23; first compound 158.11 µM): 0.104 | relative viability (NCI-H23; first compound 500 µM): 0.0119 | relative viability (NCI-H322M; first compound 5 µM): 0.466 | relative viability (NCI-H322M; first compound 15.81 µM): 0.47 | relative viability (NCI-H322M; first compound 50 µM): 0.494 | relative viability (NCI-H322M; first compound 158.11 µM): 0.513 | relative viability (NCI-H322M; first compound 500 µM): 0.288 | relative viability (NCI-H441; first compound 5 µM): 0.222 | relative viability (NCI-H441; first compound 15.81 µM): 0.197 | relative viability (NCI-H441; first compound 50 µM): 0.18 | relative viability (NCI-H441; first compound 158.11 µM): 0.136 | relative viability (NCI-H441; first compound 500 µM): 0.0142 | relative viability (NCI-H460; first compound 5 µM): 0.197 | relative viability (NCI-H460; first compound 15.81 µM): 0.0984 | relative viability (NCI-H460; first compound 50 µM): 0.0912 | relative viability (NCI-H460; first compound 158.11 µM): 0.0107 | relative viability (NCI-H460; first compound 500 µM): 0.0087 | relative viability (NCI-H661; first compound 5 µM): 0.404 | relative viability (NCI-H661; first compound 15.81 µM): 0.374 | relative viability (NCI-H661; first compound 50 µM): 0.387 | relative viability (NCI-H661; first compound 158.11 µM): 0.24 | relative viability (NCI-H661; first compound 500 µM): 0.132 | relative viability (PC-3 [JPC-3]; first compound 5 µM): 0.559 | relative viability (PC-3 [JPC-3]; first compound 50 µM): 0.512 | relative viability (PC-3 [JPC-3]; first compound 158.11 µM): 0.265 | relative viability (PC-3 [JPC-3]; first compound 500 µM): 0.263 | relative viability (SK-LU-1; first compound 5 µM): 0.422 | relative viability (SK-LU-1; first compound 15.81 µM): 0.392 | relative viability (SK-LU-1; first compound 50 µM): 0.276 | relative viability (SK-LU-1; first compound 158.11 µM): 0.32 | relative viability (SK-LU-1; first compound 500 µM): 0.202

Reference: the supplement of paper PMC10307832
